Assay results from publication PMC7914897, “Cytotoxic Potential of a-Azepano- and 3-Amino-3,4-SeCo-Triterpenoids” (International Journal of Molecular Sciences, 2021).

What was measured:
[1] = test system: A549/ATCC (NSC lung cancer); experiment: NCI-60 screen (SRB, 48 h); details: Homo sapiens
[2] = test system: NCI-H23 (NSC lung cancer); experiment: NCI-60 screen (SRB, 48 h); details: Homo sapiens
[3] = test system: SF-539 (CNS cancer); experiment: NCI-60 screen (SRB, 48 h); details: Homo sapiens
[4] = test system: CNS cancer subpanel; experiment: NCI-60 screen, subpanel; details: Homo sapiens
[5] = test system: U251 (CNS cancer); experiment: NCI-60 screen (SRB, 48 h); details: Homo sapiens
[6] = test system: SF-268 (CNS cancer); experiment: NCI-60 screen (SRB, 48 h); details: Homo sapiens
[7] = test system: RXF 393 (Renal cancer); experiment: NCI-60 screen (SRB, 48 h); details: Homo sapiens
[8] = test system: LOX IMVI (Melanoma); experiment: NCI-60 screen (SRB, 48 h); assay type: cell-based; details: Homo sapiens
[9] = test system: M14 (Melanoma); experiment: NCI-60 screen (SRB, 48 h); details: Homo sapiens
[10] = test system: SK-MEL-28 (Melanoma); experiment: NCI-60 screen (SRB, 48 h); details: Homo sapiens
[11] = test system: CAKI-1 (Renal cancer); experiment: NCI-60 screen (SRB, 48 h); details: Homo sapiens
[12] = test system: Breast cancer subpanel; experiment: NCI-60 screen, subpanel; details: Homo sapiens
[13] = test system: OVCAR-5 (Ovarian cancer); experiment: NCI-60 screen (SRB, 48 h); details: Homo sapiens
[14] = test system: NSC lung cancer subpanel; experiment: NCI-60 screen, subpanel; details: Homo sapiens
[15] = test system: NCI-H460 (NSC lung cancer); experiment: NCI-60 screen (SRB, 48 h); details: Homo sapiens
[16] = test system: A375 (malignant melanoma); experiment: SRB cytotoxicity assay, 72 h; assay type: cell-based, human; details: Homo sapiens, A-375, 72 h, A375, 72 h, cut-off 30 µM; read-out: EC50
Method: (§1) The cytotoxicity of compounds 1–20 was evaluated by means of a colorimetric sulforhodamine B (SRB) assay. For all compounds, the EC50 values were determined for the human tumor cell lines A375 (malignant melanoma), HT29 (colorectal carcinoma), MCF-7 (breast carcinoma), A2780 (ovarian carcinoma), FaDu (hypopharyngeal carcinoma), and NIH 3T3 (non-malignant mouse fibroblasts).
(§2) In short, exponentially growing cells were seeded into 96-well plates on day 0 at the appropriate cell densities to prevent confluence of the cells during the period of experiment. After 24 h, the cells were treated with serial dilutions of the compounds (0–30 µM) for 72 h. The final concentration of DMSO never exceeded 0.5%, which was non-toxic to the cells. After a 72 h treatment, the supernatant medium from the 96-well plates was discarded, and the cells were fixed with 10% TCA. For a thorough fixation, the plates were allowed to rest at 4 °C. After fixation, the cells were washed in a strip washer. The washing was done four times with water using alternate dispensing and aspiration procedures. The plates were then dyed with 100 µL of 0.4% SRB for about 20 min. After dying, the plates were washed with 1% acetic acid to remove the excess of the dye and allowed to air-dry overnight. Tris base solution (200 µL, 10 mM) was added to each well and absorbance was measured at λ = 570 nm (using a 96 well plate reader, Tecan Spectra, Crailsheim, Germany). The percentages of surviving cells relative to untreated controls were determined.

[17] = test system: MCF-7 (breast carcinoma); experiment: SRB cytotoxicity assay, 72 h; assay type: cell-based, human; details: Homo sapiens, MCF7; MCF-7, 72 h, cut-off 30 µM; read-out: EC50
Method: as §1, §2

[18] = test system: FaDu (hypopharyngeal carcinoma); experiment: SRB cytotoxicity assay, 72 h; assay type: cell-based, human; details: Homo sapiens, cut-off 30 µM, read-out: EC50
Method: as §1, §2

[19] = test system: HT29 (colorectal carcinoma); experiment: SRB cytotoxicity assay, 72 h; assay type: cell-based, human; details: Homo sapiens, HT-29; HT29, 72 h, cut-off 30 µM; read-out: EC50
Method: as §1, §2

[20] = test system: A2780 (ovarian carcinoma); experiment: SRB cytotoxicity assay, 72 h; assay type: cell-based, human; details: Homo sapiens; A2780, 72 h, cut-off 30 µM; read-out: EC50
Method: as §1, §2

[21] = test system: SK-MEL-2 (Melanoma); experiment: NCI-60 screen (SRB, 48 h); details: Homo sapiens
[22] = test system: Ovarian Cancer subpanel; experiment: NCI-60 screen, subpanel; details: Homo sapiens
[23] = test system: NCI-H522 (NSC lung cancer); experiment: NCI-60 screen (SRB, 48 h); details: Homo sapiens
[24] = test system: SF-295 (CNS cancer); experiment: NCI-60 screen (SRB, 48 h); details: Homo sapiens

## C=C(C)[C@@H]1CC[C@]2(C)[C@H](CC=C3[C@@H]4[C@@H](C)[C@H](C)CC[C@]4(CO)CC[C@]32C)[C@@]1(C)CCCN [Compound 19]
[1]; A549
  GI50: 1590 nM
[1]; A549, 48 h, read-out: TGI
  IC (TGI): 5110 nM
[1]; A549, read-out: LC50
  CC50: > 50000 nM
[2]; NCI-H23
  GI50: 1340 nM
[2]; NCI-H23, 48 h, read-out: TGI
  IC (TGI): 4000 nM
[2]; NCI-H23, read-out: LC50
  CC50: 17500 nM
[3]; SF-539
  GI50: 950 nM
[3]; SF-539, 48 h, read-out: TGI
  IC (TGI): 1730 nM
[3]; SF-539, read-out: LC50
  CC50: 3170 nM
[4]; 48 h, read-out: TGI MG_MID
  IC (TGI): 3260 nM
[4]; read-out: GI50 MG_MID
  GI50: 1150 nM
[4]; read-out: LC50 MG_MID
  CC50: 12600 nM
[5]; U-251
  GI50: 920 nM
[5]; U-251, 48 h, read-out: TGI
  IC (TGI): 1820 nM
[6]; SF-268
  GI50: 1220 nM
[6]; SF-268, 48 h, read-out: TGI
  IC (TGI): 2690 nM
[6]; SF-268, read-out: LC50
  CC50: 14800 nM
[7]; RXF 393
  GI50: 830 nM
[7]; RXF 393, 48 h, read-out: TGI
  IC (TGI): 1590 nM
[7]; RXF 393, read-out: LC50
  CC50: 3070 nM
[8]; 48 h
  IC (TGI): 1570 nM
[8]; 48 h, 1 dose 10 µM, read-out: Growth % of the Most Sensitive Cell Lines
  activity at 10 µM: -99%
[8]; read-out: GI50
  GI50: 860 nM
[8]; read-out: LC50 (the source's name)
  CC50: 2860 nM
[9]; M14
  GI50: 850 nM
[9]; M14, 48 h, read-out: TGI
  IC (TGI): 1760 nM
[9]; M14, read-out: LC50
  CC50: 3640 nM
[10]; SK-MEL-28
  GI50: 950 nM
[10]; SK-MEL-28, 48 h, read-out: TGI
  IC (TGI): 1670 nM
[10]; SK-MEL-28, read-out: LC50
  CC50: 2940 nM
[11]; CAKI-1
  GI50: 1690 nM
[11]; CAKI-1, 48 h, read-out: TGI
  IC (TGI): 5580 nM
[11]; CAKI-1, read-out: LC50
  CC50: 17900 nM
[12]; 48 h, read-out: TGI MG_MID
  IC (TGI): 3620 nM
[12]; read-out: GI50 MG_MID
  GI50: 1280 nM
[12]; read-out: LC50 MG_MID
  CC50: 16900 nM
[13]; OVCAR-5
  GI50: 1760 nM
[13]; OVCAR-5, 48 h, read-out: TGI
  IC (TGI): 6150 nM
[13]; OVCAR-5, read-out: LC50
  CC50: 20900 nM
[14]; 48 h, read-out: TGI MG_MID
  IC (TGI): 5160 nM
[14]; read-out: GI50 MG_MID
  GI50: 1840 nM
[14]; read-out: LC50 MG_MID
  CC50: 27000 nM
[15]; NCI-H460
  GI50: 910 nM
[15]; NCI-H460, 48 h, read-out: TGI
  IC (TGI): 1710 nM
[15]; NCI-H460, read-out: LC50
  CC50: 3190 nM
[16]
  EC50: 2970 ± 200 nM
[17]
  EC50: 2050 ± 200 nM
[18]
  EC50: 2950 ± 400 nM
[19]
  EC50: 1840 ± 200 nM
[20]
  EC50: 3300 ± 200 nM
[21]; SK-MEL-2
  GI50: 1730 nM
[21]; SK-MEL-2, 48 h, read-out: TGI
  IC (TGI): 5040 nM
[21]; SK-MEL-2, read-out: LC50
  CC50: 18500 nM
[22]; 48 h, read-out: TGI MG_MID
  IC (TGI): 4200 nM
[22]; read-out: GI50 MG_MID
  GI50: 1570 nM
[22]; read-out: LC50 MG_MID
  CC50: 19700 nM
[23]; NCI-H522
  GI50: 1040 nM
[23]; NCI-H522, 48 h, read-out: TGI
  IC (TGI): 2170 nM
[23]; NCI-H522, read-out: LC50
  CC50: 4540 nM
[24]; SF-295
  GI50: 850 nM
[24]; SF-295, 48 h, read-out: TGI
  IC (TGI): 1580 nM
[24]; SF-295, read-out: LC50
  CC50: 2940 nM
